Laboratory results as given in patent US10131652B2, “Pyrimidinyloxy benzene derivatives as herbicides” (E. I. DU PONT DE NEMOURS AND COMPANY, priority 2014, dated 2018).
Where two headings read alike, the source gives them in different places.

Tests used:
Type in all cases: in vivo
[1] = system: barnyardgrass (Echinochloa crus-galli); assay: Test B pre-/postemergence plant response; conditions: 1000 g ai/ha, 0 to 100 scale (0 no effect, 100 complete control); for pest or weed control at 1000 g/ha: Echinochloa crus-galli, 240 h, read-out: Plant response rating, Barnyardgrass
Procedure, shortened: (§1)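 Ratings reflect visual injury versus untreated controls, from 0 for no effect to 100 for complete control, assessed roughly 10 days after treatment. Formulation: non-phytotoxic solvent mix with surfactant; pre- and postemergence sprays on plants grown in loam soil and sand.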

corn (Zea mays) = assay: Test B pre-/postemergence plant response; conditions: 1000 g ai/ha, 0 to 100 scale (0 no effect, 100 complete control); for Corn plant response rating (crop injury, 0 = no effect, 100 = complete kill) at 1000 g/ha: Zea mays, 240 h
Procedure, shortened: as §1

[2] = system: giant foxtail (Setaria faberii); assay: Test B pre-/postemergence plant response; conditions: 1000 g ai/ha, 0 to 100 scale (0 no effect, 100 complete control); for pest or weed control at 1000 g/ha: Setaria faberi, 240 h, read-out: Plant response rating, Foxtail, Giant
Procedure, shortened: as §1

[3] = system: large (Lg) crabgrass (Digitaria sanguinalis); assay: Test B pre-/postemergence plant response; conditions: 1000 g ai/ha, 0 to 100 scale (0 no effect, 100 complete control); for pest or weed control at 1000 g/ha: Digitaria sanguinalis, 240 h, read-out: Plant response rating, Crabgrass, Large
Procedure, shortened: as §1

[4] = system: morningglory (Ipomoea spp.); assay: Test B pre-/postemergence plant response; conditions: 1000 g ai/ha, 0 to 100 scale (0 no effect, 100 complete control); for pest or weed control at 1000 g/ha: Ipomoea, 240 h, read-out: Plant response rating, Morningglory
Procedure, shortened: as §1

[5] = system: pigweed (Amaranthus retroflexus); assay: Test B pre-/postemergence plant response; conditions: 1000 g ai/ha, 0 to 100 scale (0 no effect, 100 complete control); for pest or weed control at 1000 g/ha: Amaranthus retroflexus, 240 h, read-out: Plant response rating, Pigweed
Procedure, shortened: as §1

[6] = system: velvetleaf (Abutilon theophrasti); assay: Test B pre-/postemergence plant response; conditions: 1000 g ai/ha, 0 to 100 scale (0 no effect, 100 complete control); for pest or weed control at 1000 g/ha: Abutilon theophrasti, 240 h, read-out: Plant response rating, Velvetleaf
Procedure, shortened: as §1

[7] = system: wheat (Triticum aestivum); assay: Test B pre-/postemergence plant response; conditions: 1000 g ai/ha, 0 to 100 scale (0 no effect, 100 complete control); for plant injury at 1000 g/ha: Triticum aestivum, 240 h, read-out: Plant response rating, Wheat
Procedure, shortened: as §1

[8] = system: barnyardgrass (Echinochloa crus-galli); assay: Test D flooded paddy test plant response; conditions: Flood (flooded paddy test), visual rating on scale 0 to 100 (0 no effect, 100 complete control), 13 to 15 days
Text: (§2) Plant species in the flooded paddy test consisted of rice (Oryza sativa), small-flower umbrella sedge (Cyperus difformis), ducksalad (Heteranthera limosa), and bamyardgrass (Echinochloa crus-galli) grown to the 2-leaf stage for testing. At time of treatment, test pots were flooded to 3 cm above the soil surface, treated by application of test compounds directly to the paddy water, and then maintained at that water depth for the duration of the test. Treated plants and controls were maintained in a greenhouse for 13 to 15 days, after which time all species were compared to controls and visually evaluated. Plant response ratings, summarized in Table D, are based on a scale of 0 to 100 where 0 is no effect and 100 is complete control. A dash (-) response means no test result.

[9] = system: ducksalad (Heteranthera limosa); assay: Test D flooded paddy test plant response; conditions: Flood (flooded paddy test), visual rating on scale 0 to 100 (0 no effect, 100 complete control), 13 to 15 days
Text: as §2

rice (Oryza sativa) = assay: Test D flooded paddy test plant response; conditions: Flood (flooded paddy test), visual rating on scale 0 to 100 (0 no effect, 100 complete control), 13 to 15 days
Text: as §2

[10] = system: small-flower umbrella sedge (Cyperus difformis); assay: Test D flooded paddy test plant response; conditions: Flood (flooded paddy test), visual rating on scale 0 to 100 (0 no effect, 100 complete control), 13 to 15 days
Text: as §2

[11] = system: barnyardgrass (Echinochloa crus-galli); assay: Test A pre-/postemergence plant response; conditions: 0 to 100 scale, 0 is no effect, 100 is complete control
Text: (§3) Seeds of plant species selected from downy bromegrass (Bromus tectorum), cocklebur (common cocklebur, Xanthium strumarium), wild oat (Avena fatua), barnyardgrass (Echinochloa crus-galli), large (Lg) crabgrass (Digitaria sanguinalis), giant foxtail (Setaria faberii), morningglory (Ipomoea spp.), velvetleaf (Abutilon theophrasti), and sorghum (Sorghum vulgare) were planted into a sandy loam soil and treated preemergence by soil drench using test a chemical formulated in a non-phytotoxic solvent mixture which included a surfactant. At the same time these species were also treated postemergence sprayed to runoff using a test chemical formulated in the same manner. Plants ranged in height from 2 to 18 cm and were in the one- to two-leaf stage for the postemergence treatment. Treated plants and untreated controls were maintained in a greenhouse for approximately 11 days, after which time all treated plants were compared to untreated controls and visually evaluated for injury. Plant response ratings, summarized in Table A, are based on a 0 to 100 scale where 0 is no effect and 100 is complete control. A dash (-) response means no test result.

[12] = system: cocklebur (common cocklebur, Xanthium strumarium); assay: Test A pre-/postemergence plant response; conditions: 0 to 100 scale, 0 is no effect, 100 is complete control
Text: as §3

[13] = system: downy bromegrass (Bromus tectorum); assay: Test A pre-/postemergence plant response; conditions: 0 to 100 scale, 0 is no effect, 100 is complete control
Text: as §3

[14] = system: giant foxtail (Setaria faberii); assay: Test A pre-/postemergence plant response; conditions: 0 to 100 scale, 0 is no effect, 100 is complete control
Text: as §3

[15] = system: large (Lg) crabgrass (Digitaria sanguinalis); assay: Test A pre-/postemergence plant response; conditions: 0 to 100 scale, 0 is no effect, 100 is complete control
Text: as §3

[16] = system: morningglory (Ipomoea spp.); assay: Test A pre-/postemergence plant response; conditions: 0 to 100 scale, 0 is no effect, 100 is complete control
Text: as §3

[17] = system: sorghum (Sorghum vulgare); assay: Test A pre-/postemergence plant response; conditions: 0 to 100 scale, 0 is no effect, 100 is complete control
Text: as §3

[18] = system: velvetleaf (Abutilon theophrasti); assay: Test A pre-/postemergence plant response; conditions: 0 to 100 scale, 0 is no effect, 100 is complete control
Text: as §3

wild oat (Avena fatua) = assay: Test A pre-/postemergence plant response; conditions: 0 to 100 scale, 0 is no effect, 100 is complete control
Text: as §3

[19] = 1000 g ai/ha, Post Sprayed to Runoff

Clc1ccc(-c2ccccc2Oc2ncc(Cl)cn2)nc1 [Compound 1, 5-chloro-2-[2-(5-chloro-2-pyridinyl)phenoxy]pyrimidine]
0: Plant response rating, Barnyardgrass ([8]; 31 g ai/ha) | Plant response rating, Barnyardgrass ([8]; 62 g ai/ha) | Plant response rating, Barnyardgrass ([8]; 125 g ai/ha) | Plant response rating, Barnyardgrass ([8]; 250 g ai/ha) | Plant response rating, Ducksalad ([9]; 31 g ai/ha) | Plant response rating, Ducksalad ([9]; 62 g ai/ha) | Plant response rating, Ducksalad ([9]; 125 g ai/ha) | Plant response rating, Ducksalad ([9]; 250 g ai/ha) | Plant response rating, Rice (rice (Oryza sativa); 31 g ai/ha) | Plant response rating, Rice (rice (Oryza sativa); 62 g ai/ha) | Plant response rating, Rice (rice (Oryza sativa); 125 g ai/ha) | Plant response rating, Rice (rice (Oryza sativa); 250 g ai/ha) | Plant response rating, Sedge, Umbrella ([10]; 31 g ai/ha) | Plant response rating, Sedge, Umbrella ([10]; 62 g ai/ha) | Plant response rating, Sedge, Umbrella ([10]; 125 g ai/ha) | Plant response rating, Sedge, Umbrella ([10]; 250 g ai/ha)
70%: pest or weed control at 1000 g/ha ([1]; post-emergence, Postemergence) | pest or weed control at 1000 g/ha ([3]; post-emergence, Postemergence)
100%: pest or weed control at 1000 g/ha ([2]; pre-emergence, Preemergence) | pest or weed control at 1000 g/ha ([3]; pre-emergence, Preemergence) | pest or weed control at 1000 g/ha ([5]; post-emergence, Postemergence) | pest or weed control at 1000 g/ha ([5]; pre-emergence, Preemergence) | pest or weed control at 1000 g/ha ([6]; post-emergence, Postemergence)
0%: Corn plant response rating (crop injury, 0 = no effect, 100 = complete kill) at 1000 g/ha (corn (Zea mays); pre-emergence, Preemergence) | plant injury at 1000 g/ha ([7]; post-emergence, Postemergence) | plant injury at 1000 g/ha ([7]; pre-emergence, Preemergence)
20%: pest or weed control at 1000 g/ha ([4]; pre-emergence, Preemergence)
60%: pest or weed control at 1000 g/ha ([4]; post-emergence, Postemergence)
80%: pest or weed control at 1000 g/ha ([1]; pre-emergence, Preemergence) | pest or weed control at 1000 g/ha ([2]; post-emergence, Postemergence) | pest or weed control at 1000 g/ha ([6]; pre-emergence, Preemergence)
10%: Corn plant response rating (crop injury, 0 = no effect, 100 = complete kill) at 1000 g/ha (corn (Zea mays); post-emergence, Postemergence)

Cc1ccc(Oc2ncc(Cl)cn2)c(-c2cccc(C(F)(F)F)c2)c1 [Compound 39]
70: Plant response rating, Bromegrass, Downy ([13]; 2000 g ai/ha, Pre Soil Drench) | Plant response rating, Velvetleaf ([18]; 2000 g ai/ha, Pre Soil Drench)
30: Plant response rating, Foxtail, Giant [14, 19] | Plant response rating, Morningglory [16, 19] | Plant response rating, Sorghum [17, 19]
60: Plant response rating, Velvetleaf [18, 19]
0: Plant response rating, Cocklebur ([12]; 2000 g ai/ha, Pre Soil Drench) | Plant response rating, Morningglory ([16]; 2000 g ai/ha, Pre Soil Drench)
90: Plant response rating, Barnyardgrass ([11]; 2000 g ai/ha, Pre Soil Drench) | Plant response rating, Crabgrass, Large ([15]; 2000 g ai/ha, Pre Soil Drench) | Plant response rating, Oat, Wild (wild oat (Avena fatua); 2000 g ai/ha, Pre Soil Drench)
20: Plant response rating, Bromegrass, Downy [13, 19] | Plant response rating, Oat, Wild (wild oat (Avena fatua); [19])
50: Plant response rating, Barnyardgrass [11, 19] | Plant response rating, Crabgrass, Large [15, 19] | Plant response rating, Sorghum ([17]; 2000 g ai/ha, Pre Soil Drench)
100: Plant response rating, Foxtail, Giant ([14]; 2000 g ai/ha, Pre Soil Drench)
40: Plant response rating, Cocklebur [12, 19]

FC(F)(F)Oc1cccc(-c2ccccc2Oc2ncc(Cl)cn2)c1 [Compound 40]
20: Plant response rating, Corn (corn (Zea mays); Postemergence) | Plant response rating, Ducksalad ([9]; 125 g ai/ha)
70: Plant response rating, Crabgrass, Large ([3]; Preemergence)
30: Plant response rating, Barnyardgrass ([1]; Postemergence) | Plant response rating, Sedge, Umbrella ([10]; 125 g ai/ha)
10: Plant response rating, Wheat ([7]; Postemergence)
50: Plant response rating, Barnyardgrass ([1]; Preemergence) | Plant response rating, Foxtail, Giant ([2]; Postemergence) | Plant response rating, Crabgrass, Large ([3]; Postemergence) | Plant response rating, Sedge, Umbrella ([10]; 250 g ai/ha)
100: Plant response rating, Foxtail, Giant ([2]; Preemergence) | Plant response rating, Morningglory ([4]; Postemergence) | Plant response rating, Pigweed ([5]; Postemergence) | Plant response rating, Pigweed ([5]; Preemergence) | Plant response rating, Velvetleaf ([6]; Postemergence)
0: Plant response rating, Corn (corn (Zea mays); Preemergence) | Plant response rating, Morningglory ([4]; Preemergence) | Plant response rating, Wheat ([7]; Preemergence) | Plant response rating, Barnyardgrass ([8]; 31 g ai/ha) | Plant response rating, Barnyardgrass ([8]; 62 g ai/ha) | Plant response rating, Barnyardgrass ([8]; 125 g ai/ha) | Plant response rating, Barnyardgrass ([8]; 250 g ai/ha) | Plant response rating, Ducksalad ([9]; 31 g ai/ha) | Plant response rating, Ducksalad ([9]; 62 g ai/ha) | Plant response rating, Rice (rice (Oryza sativa); 31 g ai/ha) | Plant response rating, Rice (rice (Oryza sativa); 62 g ai/ha) | Plant response rating, Rice (rice (Oryza sativa); 125 g ai/ha) | Plant response rating, Rice (rice (Oryza sativa); 250 g ai/ha) | Plant response rating, Sedge, Umbrella ([10]; 31 g ai/ha) | Plant response rating, Sedge, Umbrella ([10]; 62 g ai/ha)
90: Plant response rating, Velvetleaf ([6]; Preemergence)
40: Plant response rating, Ducksalad ([9]; 250 g ai/ha)
